Assay results published in US4455315A, “N-(Difluoromethoxy substituted phenyl)-dichloromaleimides used in agricultural and horticultural fungicidal methods” (Showa Denko Kabushiki Kaisha, priority 1980, dated 1984).

What was measured:
[1] = system: potted pears (variety: Niju-seiki); assay: Test of Phytotoxicity to Pears; format: in vivo, pear; conditions: 75% Wettable Powders, two weeks
Excerpt: Test of Phytotoxicity to Pears
After air-drying, the potted pears are allowed to stand in a greenhouse.

crops and trees = conditions: cited from earlier work
[2] = system: potted apples (variety: Star King); assay: Test of Phytotoxicity to Apples; conditions: 75% Wettable Powders, dilution × 750, 600 l/10 a, two weeks
Experimental: The resulting solution of wettable powders is sprayed, in an amount corresponding to 600 l/10a per pot, on potted apples (variety: Star King) immediately after fresh leaves are unfolded. After air-drying, the potted apples are allowed to stand in a greenhouse. Two weeks after the spray treatment, the phytotoxicity, of the compound according to the present invention, to the potted apples is examined.
For comparison, the above test is also carried out using a reference compound (fluoroimide) and plain water.

plant pathogens = conditions: U.S. Pat. No. 2,444,536; cited from earlier work
Diaporthe citri [3] = assay: Citrus Melanose-controlling Test; format: in vivo; conditions: 500 ppm; for Infested Leaves (%): 24 days after inoculation; for Infestation Rate / Number of Leaves Showing Infestation Index 0 / Number of Leaves Showing Infestation Index 1 / Number of Leaves Showing Infestation Index 2 / Number of Leaves Showing Infestation Index 3 / Number of Leaves Showing Infestation Index 4: 24 days; for Infestation Rate: (Σnf/4N)×100; for Number of Leaves Showing Infestation Index 0: index 0 = 0-25% infested area; for Number of Leaves Showing Infestation Index 1: index 1 = 26-50% infested area; for Number of Leaves Showing Infestation Index 2: index 2 = 51-75% infested area; for Number of Leaves Showing Infestation Index 3: index 3 = 76-90% infested area; for Number of Leaves Showing Infestation Index 4: index 4 = 91-100% infested area
Diaporthe citri [4] = assay: Test of Residual Activity against Citrus Melanose; format: in vivo; conditions: 1000 ppm, 23 mm/hr of rain; for Infested Leaves (%): 24 days after inoculation; for Infestation Rate: 24 days, (Σnf/4N)×100; for Number of Leaves Showing Each Infestation Index: 0: index 0 = 0-25% infested area; for Number of Leaves Showing Each Infestation Index: 1: index 1 = 26-50% infested area; for Number of Leaves Showing Each Infestation Index: 2: index 2 = 51-75% infested area; for Number of Leaves Showing Each Infestation Index: 3: index 3 = 76-90% infested area; for Number of Leaves Showing Each Infestation Index: 4: index 4 = 91-100% infested area
Phytophthora infestans = format: in vivo; conditions: 500 ppm
[5] = system: potted potatoes (variety: Chippewa); conditions: 500 ppm
[6] = system: potted young oranges (variety: Unshu); assay: Phytotoxicity of treating compound, Citrus Melanose test; conditions: 500 ppm
[7] = system: potted young oranges (variety: Unshu); assay: Phytotoxicity of treating compound, residual activity test; conditions: 1000 ppm, 23 mm/hr of rain
Venturia inaequalis = assay: Apple Scab-controlling Test; format: in vivo; conditions: 500 ppm
Elsinoe fawcetti = assay: Citrus Scab-controlling Test; conditions: 250 ppm
Experimental: (§1) The resulting solution is sprayed, in an amount corresponding to 600 l/10a per pot, on potted young oranges (variety: Unshu) immediately after fresh leaves are unfolded. After one day, the potted young oranges are inoculated with Elsinoe fawcetti, by spraying a suspension of crushed hyphae thereof containing 50 crushed hyphae per microscopic field (magnification: X100). The suspension is prepared by culturing Elsinoe fawcetti on potato medium at a temperature of 25° C. for 30 days to form hyphae and suspending it in sterilized water.
(§2) After inoculation, the potted young oranges are allowed to stand at a temperature of 25° C. in a moist room for two days and then transferred to a greenhouse. Twenty-three days after inoculation, the leaf infested by citrus scab is examined, i.e., number of pathologic spots on a leaf is examined and the numbers of leaves infested by cirtrus scab are counted. Then, an infestation rate is calculated according to the following equation:
Infestation Rate=(Σnf/3N)×100
wherein n is the number of the infested leaves, f is an infestation index and N is the total number of the examined leaves. The infestation index is as follows.
For comparison, the above test is also carried out using a reference compound (benomyl) and plain water.

[8] = system: potted apples (variety: Star King); assay: Phytotoxicity of treating compound, Apple Scab test; conditions: 500 ppm
[9] = system: potted young oranges (variety: Unshu); assay: Phytotoxicity of treating compound, Citrus Scab test; conditions: 250 ppm
Experimental: as §1, §2

Alternaria kikuchiana [10] = assay: Spore-germination Inhibiting Test; format: cell-based; conditions: 10 ppm, 27° C., 20 hours
Experimental: Spore-germination Inhibiting Test for Alternaria kukuchiana An apricot medium is inoculated with Alternaria kikuchiana and incubated at a temperature of 27° C. for 7-10 days to form conidia on the medium. […] 0.02 Ml of the prepared spore suspension containing the compound according to the present invention is dropped on a slide glass and incubated at a temperature of 27° C. under moist conditions for 20 hours. Thereafter, whether or not the spores germinate is examined under a microscope and the spore-germination rate is then calculated.

Alternaria kikuchiana [11] = assay: Pear Black Spot-controlling Test; conditions: 500 ppm, six days after inoculation
Experimental: Pear Black Spot (Alternaria kikuchiana)-controlling Test
(§3) The resulting solution is sprayed on unfolded leaves of potted young pears (variety: Niju-seiki) in an amount corresponding to 600 l/10a per pot. After air-drying, the unfolded leaves are inoculated with Alternaria kikuchiana, by spraying a suspension of conidia thereof containing 30 conidia per microscopic field (magnification: X200).
(§4) After inoculation, the potted young pears are allowed to stand at a temperature of 27° C. in a moist room for one day and then transferred to a greenhouse. Six days after inoculation, the leaf area infested by pear black spot, i.e., the area of pathologic spots on a leaf is examined on 5 unfolded leaves per pot and an average infestation rate is then calculated.

[12] = system: potted young pears (variety: Niju-seiki); assay: Phytotoxicity of treating compound, Pear Black Spot test; conditions: 500 ppm, damaged area on leaves
Experimental: as §3, §4
*The phytotoxicity of the treating compound is evaluated according to the

[13] = index 3 = 51-100% infested area

Compound | Infested Leaves (%) (Diaporthe citri [3]) | Infestation Rate (Diaporthe citri [3]) | Number of Leaves Showing Infestation Index 0 (Diaporthe citri [3]) | Number of Leaves Showing Infestation Index 1 (Diaporthe citri [3]) | Number of Leaves Showing Infestation Index 2 (Diaporthe citri [3]) | Number of Leaves Showing Infestation Index 3 (Diaporthe citri [3]) | Number of Leaves Showing Infestation Index 4 (Diaporthe citri [3]) | Infested Leaves (%) (Diaporthe citri [4]) | Infestation Rate (Diaporthe citri [4]) | Number of Leaves Showing Each Infestation Index: 0 (Diaporthe citri [4]) | Number of Leaves Showing Each Infestation Index: 1 (Diaporthe citri [4]) | Number of Leaves Showing Each Infestation Index: 2 (Diaporthe citri [4]) | Number of Leaves Showing Each Infestation Index: 3 (Diaporthe citri [4]) | Number of Leaves Showing Each Infestation Index: 4 (Diaporthe citri [4]) | Phytotoxicity of Treating Compound [6] | Phytotoxicity of Treating Compound [7] | Spore-germination Rate (%) (Alternaria kikuchiana [10]) | Average Infestation Rate (%) (Based on infested area) (Alternaria kikuchiana [11]) | Phytotoxicity of Treating Compound [12] | also measured
O=C1C(Cl)=C(Cl)C(=O)N1c1ccc(F)cc1 [fluoroimide, N(p-Fluorophenyl)-2,3-dichloromaleimide] |  |  |  |  |  |  |  |  |  |  |  |  |  |  |  |  |  |  |  | Phytotoxicity of Treating Compound ([1]; dilution × 500, 600 l/10 a): ++ (26-50%); Phytotoxicity of Treating Compound ([1]; dilution × 750, 600 l/10 a): + (6-25%); phytotoxicity (crops and trees; pear trees, strawberries, beans, and very many other crops): severe phytotoxicity; leaf-burn (crops and trees; wide variety of crops and trees): liable to cause leaf-burn; Phytotoxicity of Treating Compound [2]: + (6-25%)
O=C1C=CC(=O)N1c1ccccc1 [N-phenylmaleimide] |  |  |  |  |  |  |  |  |  |  |  |  |  |  |  |  |  |  |  | fungicidal effect (plant pathogens): has a fungicidal effect
ZnMnEthylenebisdithiocarbamate [mancozeb] | 0% | 0 | 204 leaves | 0 leaves | 0 leaves | 0 leaves | 0 leaves | 0% | 0 | 159 leaves | 0 leaves | 0 leaves | 0 leaves | 0 leaves | - (0%) | - (0%) |  |  |  | Infested Leaves (%) (Phytophthora infestans; six days after inoculation): 0%; Infestation Rate (Phytophthora infestans; six days, (Σnf/3N)×100): 0; Number of Leaves Showing Each Infestation Index: 0 (Phytophthora infestans; index 0 = 0% infested area): 20 leaves; Number of Leaves Showing Each Infestation Index: 1 (Phytophthora infestans; index 1 = 1-25% infested area): 0 leaves; Number of Leaves Showing Each Infestation Index: 2 (Phytophthora infestans; index 2 = 26-50% infested area): 0 leaves; Number of Leaves Showing Each Infestation Index: 3 (Phytophthora infestans; [13]): 0 leaves; Phytotoxicity of Treating Compound [5]: - (0%)
CCCCNC(=O)n1c(NC(=O)OC)nc2ccccc21 [benomyl, Methyl-1-(butylcarbamoyl)-2-benzimidazolecarbamate] |  |  |  |  |  |  |  |  |  |  |  |  |  |  |  |  |  |  |  | Infested Leaves (%) (Venturia inaequalis; seven days after inoculation): 0%; Infestation Rate (Venturia inaequalis; seven days, (Σnf/3N)×100): 0; Number of Leaves Showing Each Infestation Index: 0 (Venturia inaequalis; index 0 = 0% infested area): 25 leaves; Number of Leaves Showing Each Infestation Index: 1 (Venturia inaequalis; index 1 = 1-25% infested area): 0 leaves; Number of Leaves Showing Each Infestation Index: 2 (Venturia inaequalis; index 2 = 26-50% infested area): 0 leaves; Number of Leaves Showing Each Infestation Index: 3 (Venturia inaequalis; [13]): 0 leaves; Infested Leaves (%) (Elsinoe fawcetti; 23 days after inoculation): 0.6%; Infestation Rate (Elsinoe fawcetti; 23 days, (Σnf/3N)×100): 0.2; Number of Leaves Showing Each Infestation Index: 0 (Elsinoe fawcetti; index 0 = 0 spots per leaf): 328 leaves; Number of Leaves Showing Each Infestation Index: 1 (Elsinoe fawcetti; index 1 = 1-3 spots per leaf): 2 leaves; Number of Leaves Showing Each Infestation Index: 2 (Elsinoe fawcetti; index 2 = 4-10 spots per leaf): 0 leaves; Number of Leaves Showing Each Infestation Index: 3 (Elsinoe fawcetti; index 3 = ≥11 spots per leaf): 0 leaves; Phytotoxicity of Treating Compound [8]: - (0%); Phytotoxicity of Treating Compound [9]: - (0%)
O=C1C=CC(=O)N1c1cccc(OC(F)F)c1 [compound 5] | 85% | 43 | 33 leaves | 63 leaves | 71 leaves | 30 leaves | 18 leaves | 87% | 43 | 22 leaves | 43 leaves | 72 leaves | 28 leaves | 7 leaves | ++ (26-50%) | ++ (26-50%) | 5% | 55% | +++ (≥51%) | 
COc1ccccc1N1C(=O)C(Cl)=C(Cl)C1=O [compound 7] | 98% | 43 | 5 leaves | 85 leaves | 111 leaves | 32 leaves | 0 leaves | 29% | 9 | 115 leaves | 36 leaves | 11 leaves | 1 leaves | 0 leaves | + (6-25%) | + (6-25%) | 75% | 32% | ++ (26-50%) | 
